Laboratory results published in PubChem BioAssay AID248 (DTP/NCI, 2004).
Several values for one entry are separate records, joined by “and”; a condition that tells them apart may be missing. Equal entries are not always repeated. Toxic doses and inconclusive results are not listed. Rule as the data show it: active = T/C of 150% or more; inactive = T/C below 125%. Peptide text beside a SMILES is read from it. * marks the point of attachment. Cbz = O=C(OCc1ccccc1)*; CH2Cl = ClC*

Test system: L1210 leukemia ip in BDF1 mice, survival T/C
Assay: NCI In Vivo Anticancer Drug Screen. Data for tumor model L1210 Leukemia (intraperitoneal) in B6D2F1 (BDF1) mice
Settings: endpoint: mean survival time, higher = longer survival
Procedure, shortened: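 Survival endpoint. Drug-treated group vs vehicle group, expressed as T divided by C. Tumor passaged by transplantation.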

[1] = dose: 100.0 mg/kg/injection, schedule: Q01DX009 (ip), vehicle: Klucel (hydroxypropylcellulose) (HPC)
[2] = dose: 200.0 mg/kg/injection, schedule: Q01DX009 (ip), vehicle: Klucel (hydroxypropylcellulose) (HPC)
[3] = dose: 400.0 mg/kg/injection, schedule: Q01DX009 (ip), vehicle: Klucel (hydroxypropylcellulose) (HPC)
[4] = dose: 5.0 mg/kg/injection, schedule: Q01DX001 (ip), vehicle: saline
[5] = dose: 100.0 mg/kg/injection, schedule: Q04DX003 (ip), vehicle: saline with Tween-80
[6] = dose: 200.0 mg/kg/injection, schedule: Q04DX003 (ip), vehicle: saline with Tween-80
[7] = dose: 400.0 mg/kg/injection, schedule: Q04DX003 (ip), vehicle: saline with Tween-80
[8] = dose: 50.0 mg/kg/injection, schedule: Q01DX001 (ip), vehicle: saline
[9] = dose: 100.0 mg/kg/injection, schedule: Q01DX001 (ip), vehicle: saline
[10] = dose: 100.0 mg/kg/injection, schedule: Q04DX003 (ip), vehicle: Klucel (hydroxypropylcellulose) (HPC)
[11] = dose: 100.0 mg/kg/injection, schedule: Q01DX009 (ip), vehicle: saline with Tween-80
[12] = dose: 200.0 mg/kg/injection, schedule: Q01DX009 (ip), vehicle: saline with Tween-80
[13] = dose: 400.0 mg/kg/injection, schedule: Q01DX009 (ip), vehicle: saline with Tween-80
[14] = dose: 10.0 mg/kg/injection, schedule: Q01DX001 (ip), vehicle: saline
[15] = dose: 50.0 mg/kg/injection, schedule: Q01DX009 (ip), vehicle: Klucel (hydroxypropylcellulose) (HPC)

Measured: T/C

O=C(Nc1ccc(F)c([N+](=O)[O-])c1)NC(Cc1ccccc1)c1ccccc1 (stereo unspecified)
inactive: [1] 98 % of control | [2] 101 % of control | [3] 104 % of control

COc1ccc(NC(=O)Oc2cc(C)c(Cl)cc2C(C)C)c(OC)c1
inactive: [1] 101 % of control | [2] 101 % of control | [3] 92 % of control

CC1=CC(=O)C=CC1=O
inactive: [4] 107 % of control

CCC(C)C1CC1(Br)Br (stereo unspecified)
inactive: [5] 100 % of control | [6] 100 % of control | [7] 98 % of control

CCCCC(C)O[Si](C)C1(C)CCCCC1 (stereo unspecified)
inactive: [5] 94 % of control | [6] 95 % of control | [7] 106 % of control

CCCOC(=O)c1cncn1C(C)c1ccccc1 (stereo unspecified)
inactive: dose: 25.0 mg/kg/injection, schedule: Q01DX001 (ip), vehicle: saline 98 % of control | [8] 96 % of control | [9] 94 % of control

CC(C)CC(NC(=O)OCc1ccccc1)C(=O)NC(Cc1ccccc1)C(=O)CCl (stereo not drawn) (Cbz-Leu-Phe-CH2Cl; configuration not given here)
inactive: dose: 25.0 mg/kg/injection, schedule: Q04DX003 (ip), vehicle: Klucel (hydroxypropylcellulose) (HPC) 104 % of control | dose: 50.0 mg/kg/injection, schedule: Q04DX003 (ip), vehicle: Klucel (hydroxypropylcellulose) (HPC) 102 % of control | dose: 100.0 mg/kg/injection, schedule: Q01DX001 (ip), vehicle: Klucel (hydroxypropylcellulose) (HPC) 90 % of control | [10] 96 % of control and 89 % of control | dose: 200.0 mg/kg/injection, schedule: Q01DX001 (ip), vehicle: Klucel (hydroxypropylcellulose) (HPC) 88 % of control | dose: 400.0 mg/kg/injection, schedule: Q01DX001 (ip), vehicle: Klucel (hydroxypropylcellulose) (HPC) 103 % of control

CCN(CC)CCCNc1ccnc2cc(Cl)ccc12
inactive: [9] 94 % of control

CCCCN1CCC(N)=NC1=O
inactive: dose: 100.0 mg/kg/injection, schedule: Q01DX Z (ip), vehicle: saline 100 % of control | dose: 200.0 mg/kg/injection, schedule: Q01DX Z (ip), vehicle: saline 100 % of control

CN=C(NC)c1ccc(NC(=O)Nc2ccc(C)c(NC(=O)Nc3ccc(C(=NC)NC)cc3)c2)cc1
inactive: dose: 4.5 mg/kg/injection, schedule: Q01DX Z (ip), vehicle: water 98 % of control | dose: 9.0 mg/kg/injection, schedule: Q01DX Z (ip), vehicle: water 98 % of control | dose: 18.0 mg/kg/injection, schedule: Q01DX Z (ip), vehicle: water 98 % of control

O=C1c2ccccc2C(=O)C1c1ccc2ccccc2n1
inactive: [5] 95 % of control | [6] 91 % of control | [7] 93 % of control

O=C(c1cccc(C(=O)n2c3c(c4ccccc42)CCCC3)c1)n1c2c(c3ccccc31)CCCC2
inactive: [11] 90 % of control | [5] 95 % of control | [12] 90 % of control | [6] 98 % of control | [13] 94 % of control | [7] 88 % of control

CC(=O)OC1CC(OC2C(O)CC(OC3C(O)CC(OC4CCC5(C)C(CCC6C5CCC5(C)C(C7=CC(=O)OC7)CCC65O)C4)OC3C)OC2C)OC(C)C1OC1OC(CO)C(O)C(O)C1O (stereo unspecified)
inactive: [14] 101 % of control

Clc1cccc(Cl)c1Br
inactive: [1] 100 % of control | [5] 108 % of control | [2] 100 % of control | [6] 104 % of control | [3] 105 % of control | [7] 98 % of control

O=C(Nc1ccc(CCO)cc1)Nc1cccc(Cl)c1Cl
inactive: [1] 91 % of control | [2] 91 % of control | [3] 100 % of control

CN(C)CCCNC(=S)C(=S)NCCCN(C)C
inactive: [15] 105 % of control | [1] 105 % of control | [10] 94 % of control | [2] 96 % of control | dose: 200.0 mg/kg/injection, schedule: Q04DX003 (ip), vehicle: Klucel (hydroxypropylcellulose) (HPC) 94 % of control

CC(=O)OCC(=O)C12OC1CC1C3CCC4CC(O)CCC4(C)C3CC(=O)C12C (stereo unspecified)
inactive: dose: 6.0 mg/kg/injection, schedule: Q04DX002 (ip), vehicle: other 91 % of control | dose: 12.5 mg/kg/injection, schedule: Q04DX002 (ip), vehicle: other 106 % of control | dose: 25.0 mg/kg/injection, schedule: Q04DX002 (ip), vehicle: other 98 % of control | dose: 50.0 mg/kg/injection, schedule: Q04DX002 (ip), vehicle: other 98 % of control

CCOP(=O)(OCC)Oc1ccc([N+](=O)[O-])c(CC)c1
inactive: [4] 100 % of control | [14] 100 % of control

CCO/C(C)=C(/C#N)c1ccc(Cl)cc1
inactive: dose: 12.5 mg/kg/injection, schedule: Q01DX009 (ip), vehicle: gum acacia 104 % of control | dose: 25.0 mg/kg/injection, schedule: Q01DX009 (ip), vehicle: gum acacia 104 % of control | dose: 50.0 mg/kg/injection, schedule: Q01DX009 (ip), vehicle: gum acacia 102 % of control

CCOC(=O)c1ccc(NC(=O)Nc2ccccc2OC)cc1
inactive: dose: 100.0 mg/kg/injection, schedule: Q01DX001 (ip), vehicle: saline with Tween-80 89 % of control | [11] 92 % of control | dose: 100.0 mg/kg/injection, schedule: Q04DX002 (ip), vehicle: saline with Tween-80 94 % of control and 87 % of control | dose: 200.0 mg/kg/injection, schedule: Q01DX001 (ip), vehicle: saline with Tween-80 92 % of control | [12] 95 % of control | dose: 200.0 mg/kg/injection, schedule: Q04DX002 (ip), vehicle: saline with Tween-80 87 % of control and 91 % of control | [6] 87 % of control | dose: 400.0 mg/kg/injection, schedule: Q01DX001 (ip), vehicle: saline with Tween-80 86 % of control | [13] 87 % of control | dose: 400.0 mg/kg/injection, schedule: Q04DX002 (ip), vehicle: saline with Tween-80 87 % of control | [7] 92 % of control

Nc1ncnc2c1ncn2C1CC(CO)C(O)C1O (stereo unspecified)
inactive: dose: 2.0 mg/kg/injection, schedule: Q01DX015 (ip), vehicle: Klucel (hydroxypropylcellulose) (HPC) 114 % of control | dose: 3.0 mg/kg/injection, schedule: Q01DX015 (ip), vehicle: Klucel (hydroxypropylcellulose) (HPC) 91 % of control | dose: 4.4 mg/kg/injection, schedule: Q01DX015 (ip), vehicle: Klucel (hydroxypropylcellulose) (HPC) 93 % of control | dose: 6.25 mg/kg/injection, schedule: Q01DX009 (ip), vehicle: carboxymethylcellulose (CMC) 98 % of control | dose: 6.7 mg/kg/injection, schedule: Q01DX015 (ip), vehicle: Klucel (hydroxypropylcellulose) (HPC) 96 % of control | dose: 10.0 mg/kg/injection, schedule: Q01DX015 (ip), vehicle: Klucel (hydroxypropylcellulose) (HPC) 97 % of control | dose: 12.5 mg/kg/injection, schedule: Q01DX009 (ip), vehicle: carboxymethylcellulose (CMC) 97 % of control | dose: 15.0 mg/kg/injection, schedule: Q01DX015 (ip), vehicle: Klucel (hydroxypropylcellulose) (HPC) 98 % of control | dose: 25.0 mg/kg/injection, schedule: Q01DX009 (ip), vehicle: carboxymethylcellulose (CMC) 89 % of control | [8] 93 % of control | [9] 102 % of control | dose: 200.0 mg/kg/injection, schedule: Q01DX001 (ip), vehicle: saline 91 % of control | dose: 400.0 mg/kg/injection, schedule: Q01DX001 (ip), vehicle: saline 88 % of control

O=C(C1=CC=CC1=P(c1ccccc1)(c1ccccc1)c1ccccc1)C(Cl)(Cl)Cl
inactive: [5] 96 % of control | [6] 95 % of control | [7] 96 % of control

CN(C)c1ccc([PH+](c2ccc(N(C)C)cc2)c2ccc(N(C)C)cc2)cc1.CN(C)c1ccc([PH+](c2ccc(N(C)C)cc2)c2ccc(N(C)C)cc2)cc1.[Cl][Hg][Cl]
inactive: [15] 94 % of control | [1] 90 % of control | [2] 90 % of control
